The supplement of paper PMC10307832

Experiments:
Assay in all cases: relative viability (nuclei count vs DMSO), 5 days (fraction); higher = more cells survive
[1] = compound: CN(C/C=C/C1=CC=C(C=C1)Cl)CC2=CC=CC=C2N(CCO)S(=O)(=O)C3=CC=C(C=C3)OC [KN-93] + CC(=O)c1c(C)c2cnc(Nc3ccc(N4CCNCC4)cn3)nc2n(C2CCCC2)c1=O [Palbociclib] (partner 0.5 µM)
In short: (§1)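 After 5 days of treatment, lung cancer cells in 1536-well plates were fixed and stained in a single step (final 0.05% Triton X-100, 1% formaldehyde, 1 ug/ml Hoechst) and their nuclei counted on 4× images. Treatment had been applied by pin tool the day after seeding as one drug alone or as a fixed anchor-drug dose with five library-drug doses (not always all listed) in √10 steps. Relative viability is the nuclei count of treated wells divided by that of vehicle wells, and values are medians of duplicate plates.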

[2] = compound: CN(C/C=C/C1=CC=C(C=C1)Cl)CC2=CC=CC=C2N(CCO)S(=O)(=O)C3=CC=C(C=C3)OC [KN-93] + CS(=O)(=O)CCNCc1ccc(-c2ccc3ncnc(Nc4ccc(OCc5cccc(F)c5)c(Cl)c4)c3c2)o1 [Lapatinib] (partner 2 µM)
In short: as §1

[3] = compound: CN(C/C=C/C1=CC=C(C=C1)Cl)CC2=CC=CC=C2N(CCO)S(=O)(=O)C3=CC=C(C=C3)OC [KN-93] + N=C(N)NC(=N)NCCc1ccccc1 [Phenformin] (partner 250 µM)
In short: as §1

[4] = compound: CN(C/C=C/C1=CC=C(C=C1)Cl)CC2=CC=CC=C2N(CCO)S(=O)(=O)C3=CC=C(C=C3)OC [KN-93] + Nc1nc2[nH]cc(CCc3ccc(C(=O)N[C@@H](CCC(=O)O)C(=O)O)cc3)c2c(=O)[nH]1 [Pemetrexed] (partner 0.2 µM)
In short: as §1

[5] = compound: CN(C/C=C/C1=CC=C(C=C1)Cl)CC2=CC=CC=C2N(CCO)S(=O)(=O)C3=CC=C(C=C3)OC [KN-93] + O=C(c1cc(Cc2n[nH]c(=O)c3ccccc23)ccc1F)N1CCN(C(=O)C2CC2)CC1 [Olaparib] (partner 8 µM)
In short: as §1

Row | Cell Line | relative viability ([1]; first compound 0.08 µM) | relative viability ([1]; first compound 0.253 µM) | relative viability ([1]; first compound 2.53 µM) | relative viability ([1]; first compound 8 µM) | relative viability ([2]; first compound 0.08 µM) | relative viability ([2]; first compound 0.253 µM) | relative viability ([2]; first compound 2.53 µM) | relative viability ([2]; first compound 8 µM) | relative viability ([3]; first compound 0.08 µM) | relative viability ([3]; first compound 0.253 µM) | relative viability ([3]; first compound 2.53 µM) | relative viability ([3]; first compound 8 µM) | relative viability ([4]; first compound 0.08 µM) | relative viability ([4]; first compound 0.253 µM) | relative viability ([4]; first compound 2.53 µM) | relative viability ([4]; first compound 8 µM) | relative viability ([5]; first compound 0.08 µM) | relative viability ([5]; first compound 0.253 µM) | relative viability ([5]; first compound 2.53 µM) | relative viability ([5]; first compound 8 µM)
1 | 201T | 0.359 | 0.376 | 0.367 | 0.306 | 1.1 | 0.955 | 1.03 | 0.988 | 0.47 | 0.424 | 0.51 | 0.452 | 0.327 | 0.315 | 0.32 | 0.323 | 0.847 | 0.857 | 0.904 | 0.706
2 | A549 |  |  |  |  | 0.863 | 0.937 | 1.01 | 0.385 | 0.183 | 0.347 | 0.922 | 0.132 |  |  |  |  | 0.303 | 0.336 | 0.65 | 0.0828
3 | A-427 | 0.555 | 0.533 | 0.511 | 0.41 | 1.21 | 1.28 | 1.05 | 0.878 | 0.322 | 0.35 | 0.278 | 0.229 | 1.05 | 1.01 | 0.941 | 0.776 | 0.783 | 0.559 | 0.765 | 0.51
4 | ABC-1 | 0.691 | 0.64 | 0.571 | 0.336 | 0.92 | 1.64 | 1.18 | 1.05 | 0.248 | 0.242 | 0.248 | 0.216 |  |  |  |  | 0.785 | 0.687 | 0.978 | 0.339
5 | BEN | 0.482 | 0.448 | 0.523 | 0.465 |  | 0.968 | 0.918 | 0.362 | 0.239 | 0.26 | 0.295 | 0.275 | 0.886 | 0.829 | 0.913 | 0.54 | 1.13 | 1.19 | 1.06 | 0.713
6 | CAL-12T | 0.37 | 0.52 | 0.232 | 0.3 | 0.616 | 0.574 | 0.716 | 0.496 | 0.557 | 0.474 | 0.563 | 0.407 | 1.08 | 1.25 | 0.93 | 1.01 | 0.772 | 0.777 | 0.788 | 0.641
7 | COR-L23 | 0.272 | 0.289 | 0.303 | 0.24 | 0.846 | 1.47 | 0.901 | 0.508 | 0.432 | 0.569 | 0.583 | 0.387 | 0.196 | 0.205 | 0.204 | 0.2 | 0.298 | 0.338 | 0.357 | 0.327
8 | COR-L 105 | 0.456 | 0.412 | 0.391 | 0.333 | 0.451 | 0.318 | 0.318 | 0.367 | 0.559 | 0.443 | 0.517 | 0.366 | 1.07 | 1.02 | 1.31 | 0.832 | 0.722 | 0.499 | 0.545 | 0.661
9 | ChaGo-K-1 | 0.899 | 1.02 | 0.946 | 0.829 |  |  |  |  | 0.456 | 0.56 | 0.466 | 0.453 | 0.264 | 0.259 | 0.246 | 0.258 | 0.388 | 0.402 | 0.442 | 0.38
10 | EKVX | 0.433 | 0.34 | 0.365 | 0.265 | 0.209 | 0.133 | 0.194 | 0.153 | 0.23 | 0.224 | 0.239 | 0.203 | 0.382 | 0.346 | 0.454 | 0.244 | 0.761 | 0.558 | 0.802 | 0.669
11 | EMC-BAC-2 | 0.564 | 0.53 | 0.537 | 0.46 | 0.852 | 0.956 | 0.943 | 0.625 | 0.501 | 0.596 | 0.548 | 0.458 | 0.452 | 0.484 | 0.497 | 0.437 | 0.498 | 0.441 | 0.507 | 0.431
12 | EPLC-272H | 0.321 | 0.279 | 0.354 | 0.346 | 0.925 | 1.03 | 0.981 | 0.774 | 0.276 | 0.299 | 0.276 | 0.25 | 0.422 | 0.274 | 0.285 | 0.211 | 0.466 | 0.681 | 0.913 | 0.267
13 | H3255 | 0.322 | 0.303 | 0.3 | 0.266 | 0.266 | 0.241 | 0.259 | 0.224 | 0.383 | 0.339 | 0.401 | 0.362 | 0.558 | 0.54 | 0.544 | 0.484 | 0.519 | 0.621 | 0.523 | 0.485
14 | HARA | 0.29 | 0.261 | 0.229 | 0.195 | 0.693 | 0.737 | 0.811 | 0.625 | 0.329 | 0.477 | 0.543 | 0.148 | 0.292 | 0.29 | 0.282 | 0.247 | 0.524 | 0.584 | 0.718 | 0.336
15 | HCC-15 | 0.671 | 0.82 | 0.735 | 0.513 | 0.625 | 1.01 | 1.02 | 0.685 | 0.401 | 0.522 | 0.685 | 0.42 | 0.218 | 0.209 | 0.21 | 0.215 | 0.658 | 0.731 | 0.719 | 0.522
16 | HCC-44 | 1.04 | 0.878 | 0.979 | 0.79 | 0.946 | 0.945 | 1.28 | 0.81 | 0.314 | 0.202 | 0.331 | 0.16 | 0.652 | 0.615 | 0.667 | 0.678 | 0.935 | 0.959 | 0.994 | 0.88
17 | HCC-78 | 0.47 | 0.513 | 0.446 | 0.427 | 0.881 | 0.703 | 1.02 | 0.21 | 0.769 | 0.664 | 0.636 | 0.652 | 0.816 | 1.02 | 0.911 | 0.935 | 0.725 | 0.976 | 0.807 | 0.726
18 | HCC-366 | 0.407 | 0.531 | 0.563 | 0.221 |  | 1.24 | 1.7 | 0.83 | 0.595 | 0.661 | 0.639 | 0.277 | 0.157 | 0.175 | 0.189 | 0.133 | 0.298 | 0.318 | 0.422 | 0.2
19 | HCC-827 | 0.591 | 0.492 | 0.845 | 0.422 | 0.218 | 0.204 | 0.197 | 0.194 | 0.417 | 0.385 | 0.479 | 0.407 | 0.243 | 0.286 | 0.257 | 0.286 | 0.745 | 0.556 | 0.704 | 0.608
20 | HOP-62 | 0.461 | 0.573 | 0.552 | 0.477 | 0.94 | 1.23 | 0.985 | 1 | 0.525 | 0.835 | 0.849 | 0.741 | 0.28 | 0.383 | 0.346 | 0.322 | 0.325 | 0.401 | 0.0964 | 0.545
21 | IA-LM |  |  |  |  | 0.837 | 0.831 | 1.31 | 0.572 |  |  |  |  |  |  |  |  | 1.05 | 0.656 | 0.933 | 0.579
22 | LC-2-ad | 0.491 | 0.517 | 0.529 | 0.452 | 0.952 | 1.21 | 0.997 | 0.673 | 0.651 | 0.678 | 0.645 | 0.553 | 0.272 | 0.272 | 0.298 | 0.295 | 0.687 | 0.739 | 0.733 | 0.62
23 | LCLC-103H | 0.472 | 0.458 | 0.49 | 0.518 |  |  |  |  | 0.319 | 0.341 | 0.359 | 0.31 | 0.455 | 0.443 | 0.515 | 0.475 | 0.701 | 0.859 | 0.758 | 0.558
24 | NCI-H441 |  | 0.171 | 0.185 | 0.147 |  |  |  |  | 0.828 | 1.06 | 0.921 | 0.779 |  | 0.242 | 0.293 | 0.268 |  | 0.799 | 0.531 | 0.467
25 | NCI-H522 | 1.1 | 1.31 | 1 | 0.81 |  |  |  |  | 0.666 | 0.704 | 0.741 | 0.636 | 1.02 | 0.987 | 1.29 | 0.779 | 0.61 | 0.607 | 0.576 | 0.649
26 | NCI-H596 |  |  |  |  | 1.05 | 0.945 | 1.23 | 0.985 | 0.728 | 0.95 | 0.69 | 0.45 | 0.528 | 0.493 | 0.589 | 0.455 | 0.737 | 0.507 | 0.658 | 0.642
27 | NCI-H727 | 0.606 |  | 0.67 | 0.655 | 0.776 | 0.762 | 0.802 | 0.486 | 0.576 | 0.601 | 0.814 | 0.533 |  |  |  |  | 0.69 |  | 0.744 | 0.738
28 | NCI-H1703 |  |  |  |  | 1.06 | 1.41 | 1.03 | 0.265 |  |  |  |  |  |  |  |  | 0.432 |  | 0.372 | 0.181
29 | NCI-H2342 | 0.538 | 0.54 | 0.565 | 0.507 |  |  |  |  | 0.536 | 0.62 | 0.671 | 0.487 | 0.735 | 0.679 | 0.859 | 0.717 | 0.4 | 0.423 | 0.446 | 0.352
30 | SW 900 | 0.539 | 0.592 | 0.509 | 0.471 |  |  |  |  | 0.547 | 0.474 | 0.656 | 0.554 | 0.522 | 0.517 | 0.491 | 0.47 | 1.13 | 0.766 | 1.13 | 0.559
